Where a SMILES comes first, the peptide text is derived from it. The star is where a group is joined. Palmitoyl = CCCCCCCCCCCCCCCC(=O)*
Legend:
P19 cells = conditions: flow cytometry; all tested concentrations
Procedure: In experiments conducted during development of embodiments of the present invention, P19 cells in suspension were allowed to form aggregates for four days and were then cultured with the histidine hexamer PA, with sequence [sequence]-palmitoyl for two weeks. […] P19 cells were allowed to form aggregates for seven days and then cultured with the DNA-PA complexes.

[1] = test system: P19 cells in suspension aggregates; assay: Transfection of P19 suspension aggregates with GFP plasmid, read by qPCR and Western blot; assay type: cell-based; conditions: comparison of PA system, peptide and Lipofectamine
Excerpt: In the figure, “peptide amphiphile” is the DNA-binding PA with sequence […](N^ε-palmitoyl) and “peptide” is a peptide with sequence […].
In some embodiments, the invention described here improves on this system by incorporating one or more peptides which are bioactive and direct the complex to the nucleus. It is designed, in some embodiments, to form an alpha helix which binds to the major groove of the double helix of DNA. In addition, it is a self-assembling peptide amphiphile (PA) which forms high aspect ratio nanostructures. When complexed with DNA, these nanostructures are, on average, smaller than the nanostructures produced by LIPOFECAMINE as determined by dynamic light scattering. The present invention is not limited to a particular mechanism. Indeed, an understanding of the mechanism is not necessary to practice the present invention. Nonetheless, it is contemplated that the system works by complexing and condensing the DNA through specific binding to the major groove and electrostatic screening. This DNA-PA complex is similar to the LIPOFECTAMINE complex, however it includes a peptide region containing a nuclear localization signal which directs the cell to move this complex through the cytoplasm and into the nucleus where the genes encoded in the DNA are subsequently expressed. […]

Row | Compound | toxicity to P19 cells (P19 cells) | transfection efficiency (in words) [1] | transfection efficiency (in words) ([1]; listed as peptide control)
1 | CCCCCCCCCCCCCCCC(=O)NCCCC[C@H](NC(=O)[C@H](C)NC(=O)[C@H](C)NC(=O)[C@H](C)NC(=O)[C@H](CC(C)C)NC(=O)[C@H](CC(C)C)NC(=O)[C@H](CC(C)C)NC(=O)[C@H](CCCCN)NC(=O)[C@H](CC(N)=O)NC(=O)[C@@H](NC(=O)[C@H](C)NC(=O)[C@H](CO)NC(=O)[C@H](CCC(N)=O)NC(=O)[C@H](Cc1ccc(O)cc1)NC(=O)[C@@H](NC(=O)CNC(=O)[C@H](CC(C)C)NC(=O)[C@H](CCCNC(=N)N)NC(=O)[C@H](CCCCN)NC(=O)[C@H](C)NC(=O)[C@@H](NC(=O)[C@H](CCCCN)NC(=O)[C@@H](N)CCCNC(=N)N)[C@@H](C)O)C(C)C)[C@@H](C)CC)C(=O)O [DNA-binding PA] (H-RKTAKRLGVYQSAINKLLLAAAK(Palmitoyl)-OH) | nontoxic |  | 
2 | RKTAKRLGVYQSAINK [peptide] |  | lower transfection efficiency | poor results compared to both the lipofectamine system and the PA system

From patent US20090098652A1, “SELF ASSEMBLING PEPTIDE SYSTEMS AND METHODS” (Northwestern University, priority 2007, published 2009)
